Our source for the IC50 and EC50 values is ChEMBL document CHEMBL1140357, “Discovery of hydroxamic acid analogs as dual inhibitors of phosphodiesterase-1 and -5” (Bioorg Med Chem Lett, 2005).

Experiment [1] has as its target cGMP-specific 3',5'-cyclic phosphodiesterase (Homo sapiens, UniProt O76074). The experiment is described as follows: Inhibitory concentration against Phosphodiesterase type 5.
Experiment [2] has as its target Phosphodiesterase 1 (Homo sapiens, UniProt P54750+Q01064+Q14123). The experiment is described as follows: Inhibitory concentration against Phosphodiesterase type 1. The class given is protein assay.
The species named for experiment [3] is Rattus norvegicus. The experiment is described as follows: Effective concentration required for vasodilatory effect in isolated vessel of rat. It counts as functional.
The target of experiment [4] is Phosphodiesterase 3 (Homo sapiens, UniProt Q14432+Q13370). The experiment is described as follows: Inhibitory concentration against Phosphodiesterase type 3. The class given is protein assay.

`O=C(Cc1csc(NC(=O)c2ccc3ccccc3n2)n1)NO`: the IC50 (in general, the concentration needed to halve the response being measured) in experiment [1] amounted to 0.14 µM; in experiment [2] it was 8 µM.
With `O=C(Cc1csc(NC(=O)c2cccc(COc3ccccc3)n2)n1)NO`, the midpoint of the response in experiment [3], the EC50, lay at 3.9 µM. For the same compound, the IC50 is 0.19 µM in experiment [1], greater than 10 µM in experiment [4] and 0.92 µM in experiment [2].
For the compound `CN(C)c1cccc(C(=O)Nc2nc(CC(=O)NO)cs2)c1`, the figures for the half-inhibitory concentration (IC50) in experiment [1] and in experiment [2] were 5.47 µM and greater than 10 µM, respectively.
The corresponding values for `CCCCCCCCCCCC(=O)Nc1nc(CC(=O)NO)cs1` are 1.8 µM and greater than 10 µM.
For the compound `CC(C)CC(C(=O)NO)c1csc(NC(=O)c2cccc(COc3ccccc3)n2)n1` (stereo unspecified), the IC50 in experiment [1] was determined as 0.62 µM; in experiment [2], 3.94 µM.
Regarding `O=C(Cc1csc(NC(=O)c2ccccc2)n1)NO`, the IC50 in experiment [1] was 3.25 µM; in experiment [2], greater than 10 µM.
The corresponding values for `CC(C)CC(C(=O)O)c1csc(NC(=O)c2cccc(COc3ccccc3)n2)n1` (stereo unspecified) are 6.25 µM and greater than 10 µM.
Regarding `O=C(Cc1csc(NC(=O)CCCCCc2ccccc2)n1)NO`, the IC50 in experiment [1] amounted to 1.9 µM; in experiment [2] it was 4.5 µM.
As to `CCc1cc(C(C)=O)c(O)cc1OCc1cccc(C(=O)Nc2nc(CC(=O)NO)cs2)n1`, the EC50 – broadly, the concentration at which the effect is half-maximal – in experiment [3] was 0.9 µM. Further, the IC50 in experiment [1] turned out to be 0.026 µM; in experiment [4], 1.3 µM; in experiment [2], 0.087 µM.
With `O=C(Cc1csc(NC(=O)c2ccccc2F)n1)NO`, the IC50 was 7.56 µM in experiment [1] and greater than 10 µM in experiment [2].
The corresponding values for `CCCCCCC(C(=O)NO)c1csc(NC(=O)c2cccc(COc3ccccc3)n2)n1` (stereo unspecified) are 0.23 µM and 5.7 µM.
